# Laboratory results: ChEMBL document CHEMBL1201862, “PubChem BioAssay data set” (2004)
# Calls of active or inactive are those of the source.
# Experiments:
# [1] = molecular target: Dual specificity mitogen-activated protein kinase kinase 1 (Homo sapiens, UniProt Q02750); assay: Navigating the Kinome. Panel member name: MAP2K1; assay type: functional
# [2] = molecular target: Serine/threonine-protein kinase PAK 4 (Homo sapiens, UniProt O96013); assay type: functional;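 note: value obtained within a kinome profiling panel in which PAK4 was one of the panel members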
# Chain of Serine/threonine-protein kinase PAK 4 (O96013 whole entry): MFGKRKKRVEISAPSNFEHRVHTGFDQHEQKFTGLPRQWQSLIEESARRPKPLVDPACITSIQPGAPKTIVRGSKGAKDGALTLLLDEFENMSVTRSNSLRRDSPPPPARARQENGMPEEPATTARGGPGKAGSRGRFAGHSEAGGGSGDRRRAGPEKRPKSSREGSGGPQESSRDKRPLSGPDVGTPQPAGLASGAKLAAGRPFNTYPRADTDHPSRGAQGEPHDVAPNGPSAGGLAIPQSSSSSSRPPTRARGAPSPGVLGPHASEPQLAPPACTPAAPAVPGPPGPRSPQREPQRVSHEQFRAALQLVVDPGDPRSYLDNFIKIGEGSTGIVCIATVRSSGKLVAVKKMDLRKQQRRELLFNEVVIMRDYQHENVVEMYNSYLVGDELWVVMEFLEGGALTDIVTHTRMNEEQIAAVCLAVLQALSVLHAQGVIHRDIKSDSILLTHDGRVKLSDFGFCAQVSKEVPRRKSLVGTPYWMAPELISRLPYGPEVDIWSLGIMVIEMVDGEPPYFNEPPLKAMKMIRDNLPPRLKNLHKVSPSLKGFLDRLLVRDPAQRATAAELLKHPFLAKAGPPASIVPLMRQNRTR
# [3] = molecular target: Mitogen-activated protein kinase 9 (Homo sapiens, UniProt P45984); assay type: functional;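 note: value from a kinome panel profiling assay, MAPK9 panel entry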
# Chain of Mitogen-activated protein kinase 9 (P45984 whole entry, the tested form may be a part): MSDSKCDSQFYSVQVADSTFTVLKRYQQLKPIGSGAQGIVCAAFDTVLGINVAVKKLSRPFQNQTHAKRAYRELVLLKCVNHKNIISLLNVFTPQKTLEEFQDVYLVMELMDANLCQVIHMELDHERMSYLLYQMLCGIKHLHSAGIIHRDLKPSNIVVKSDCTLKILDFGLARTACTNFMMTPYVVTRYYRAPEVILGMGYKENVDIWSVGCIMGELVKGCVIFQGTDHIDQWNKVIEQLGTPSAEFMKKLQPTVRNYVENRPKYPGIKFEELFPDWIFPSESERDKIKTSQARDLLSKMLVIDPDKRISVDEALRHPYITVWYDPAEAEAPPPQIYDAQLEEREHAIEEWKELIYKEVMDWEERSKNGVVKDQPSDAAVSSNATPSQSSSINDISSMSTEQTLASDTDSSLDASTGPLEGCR
# [4] = molecular target: LIM domain kinase 1 (Homo sapiens, UniProt P53667); assay: Navigating the Kinome. Panel member name: LIMK1; assay type: functional
# Chain of LIM domain kinase 1 (P53667 whole entry, the tested form may be a part): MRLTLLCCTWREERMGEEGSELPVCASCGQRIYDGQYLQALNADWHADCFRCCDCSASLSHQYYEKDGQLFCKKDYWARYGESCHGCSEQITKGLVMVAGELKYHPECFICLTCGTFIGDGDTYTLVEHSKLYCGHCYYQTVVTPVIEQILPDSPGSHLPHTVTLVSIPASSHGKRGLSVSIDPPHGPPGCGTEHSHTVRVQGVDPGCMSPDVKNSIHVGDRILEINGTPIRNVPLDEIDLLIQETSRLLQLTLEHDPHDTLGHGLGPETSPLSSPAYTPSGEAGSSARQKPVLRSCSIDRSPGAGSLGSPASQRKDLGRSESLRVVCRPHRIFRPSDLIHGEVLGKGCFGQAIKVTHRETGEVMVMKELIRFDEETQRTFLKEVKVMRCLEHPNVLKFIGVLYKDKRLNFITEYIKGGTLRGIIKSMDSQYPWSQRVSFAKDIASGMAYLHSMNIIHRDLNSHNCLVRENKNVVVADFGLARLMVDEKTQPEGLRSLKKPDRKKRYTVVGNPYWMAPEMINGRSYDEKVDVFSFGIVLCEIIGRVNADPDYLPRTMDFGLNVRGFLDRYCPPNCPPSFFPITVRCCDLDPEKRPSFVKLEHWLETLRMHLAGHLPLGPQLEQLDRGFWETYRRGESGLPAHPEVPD
# [5] = molecular target: Hepatocyte growth factor receptor (Homo sapiens, UniProt P08581); assay type: functional;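 note: kinase panel profiling across the kinome, with MET as the panel member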
# [6] = molecular target: Activated CDC42 kinase 1 (Homo sapiens, UniProt Q07912); assay: Navigating the Kinome. Panel member name: ACK1; assay type: functional
# Chain of Activated CDC42 kinase 1 (Q07912 whole entry): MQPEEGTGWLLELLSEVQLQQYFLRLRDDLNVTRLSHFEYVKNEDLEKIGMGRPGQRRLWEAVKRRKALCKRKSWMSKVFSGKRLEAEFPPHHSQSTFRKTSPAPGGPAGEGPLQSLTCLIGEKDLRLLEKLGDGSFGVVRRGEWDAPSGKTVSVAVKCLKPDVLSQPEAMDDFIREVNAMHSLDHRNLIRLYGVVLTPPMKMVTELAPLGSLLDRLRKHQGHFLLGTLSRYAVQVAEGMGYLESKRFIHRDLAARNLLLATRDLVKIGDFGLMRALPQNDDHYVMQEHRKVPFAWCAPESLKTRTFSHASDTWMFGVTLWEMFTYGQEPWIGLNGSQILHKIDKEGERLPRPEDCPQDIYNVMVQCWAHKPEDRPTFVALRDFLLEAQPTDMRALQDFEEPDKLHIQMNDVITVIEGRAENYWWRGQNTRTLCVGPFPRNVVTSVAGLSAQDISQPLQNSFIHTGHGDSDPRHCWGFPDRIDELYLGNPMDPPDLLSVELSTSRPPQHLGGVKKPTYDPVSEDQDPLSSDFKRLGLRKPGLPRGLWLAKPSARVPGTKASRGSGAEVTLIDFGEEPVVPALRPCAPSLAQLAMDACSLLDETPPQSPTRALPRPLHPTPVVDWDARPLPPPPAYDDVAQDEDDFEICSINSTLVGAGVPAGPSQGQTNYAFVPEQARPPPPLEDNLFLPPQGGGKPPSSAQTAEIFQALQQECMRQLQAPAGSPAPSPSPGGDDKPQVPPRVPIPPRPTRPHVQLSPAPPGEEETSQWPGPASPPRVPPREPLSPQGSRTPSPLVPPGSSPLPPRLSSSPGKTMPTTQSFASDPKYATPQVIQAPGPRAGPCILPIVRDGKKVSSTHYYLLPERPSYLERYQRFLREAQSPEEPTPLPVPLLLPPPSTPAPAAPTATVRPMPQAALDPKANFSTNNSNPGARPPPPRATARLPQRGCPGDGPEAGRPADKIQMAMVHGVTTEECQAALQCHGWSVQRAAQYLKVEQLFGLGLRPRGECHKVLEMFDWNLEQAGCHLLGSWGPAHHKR
# [7] = molecular target: T1, SUMO-activating enzyme (Homo sapiens, UniProt Q9UBT2); assay: blockers of UBC9-mediated SUMO conjugation – biochemical, AlphaScreen, SUMOylation inhibitor project, confirmation (AID 2018); assay type: functional
# T1 sequence (Q9UBE0 whole entry): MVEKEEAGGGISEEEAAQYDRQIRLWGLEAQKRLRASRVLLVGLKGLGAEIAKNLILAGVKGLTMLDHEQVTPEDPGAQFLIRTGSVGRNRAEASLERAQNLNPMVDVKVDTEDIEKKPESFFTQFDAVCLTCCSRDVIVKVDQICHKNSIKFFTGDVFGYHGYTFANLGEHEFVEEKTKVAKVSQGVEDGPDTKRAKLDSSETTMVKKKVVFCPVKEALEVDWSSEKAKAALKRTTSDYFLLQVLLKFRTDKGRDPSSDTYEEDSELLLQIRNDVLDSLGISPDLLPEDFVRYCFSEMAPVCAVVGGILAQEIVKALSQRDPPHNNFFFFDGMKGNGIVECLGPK
# T1 sequence (Q9UBT2 whole entry): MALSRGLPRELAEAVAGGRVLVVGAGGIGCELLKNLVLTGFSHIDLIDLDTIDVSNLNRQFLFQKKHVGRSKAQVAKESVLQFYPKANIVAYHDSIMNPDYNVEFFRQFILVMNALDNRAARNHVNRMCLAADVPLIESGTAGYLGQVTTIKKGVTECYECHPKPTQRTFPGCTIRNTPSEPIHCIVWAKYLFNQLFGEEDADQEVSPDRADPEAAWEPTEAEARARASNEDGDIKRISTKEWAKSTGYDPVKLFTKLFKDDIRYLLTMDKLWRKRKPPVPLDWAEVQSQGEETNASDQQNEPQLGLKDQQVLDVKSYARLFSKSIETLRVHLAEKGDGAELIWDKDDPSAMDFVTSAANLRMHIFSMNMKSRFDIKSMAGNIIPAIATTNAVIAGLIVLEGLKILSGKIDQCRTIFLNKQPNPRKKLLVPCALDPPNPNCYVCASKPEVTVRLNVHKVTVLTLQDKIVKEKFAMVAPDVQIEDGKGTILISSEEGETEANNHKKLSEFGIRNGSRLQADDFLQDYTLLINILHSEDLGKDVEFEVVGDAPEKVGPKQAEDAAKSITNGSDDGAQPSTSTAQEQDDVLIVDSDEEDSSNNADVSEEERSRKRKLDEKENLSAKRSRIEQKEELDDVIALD
# [8] = molecular target: Voltage-gated N-type calcium channel alpha-1B subunit/Amyloid beta A4 precursor protein-binding family A member 1 (Homo sapiens, UniProt Q00975+Q02410); assay type: protein assay
# [9] = molecular target: T1, SUMO-activating enzyme; assay: blockers of SAE1/SAE2–UBC9 SUMO transfer – biochemical, HTRF, uHTS, primary screen (AID 2006); assay type: protein-complex assay
# [10] = molecular target: T2, Caspase-3 (Homo sapiens, UniProt P42574); assay type: functional;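 note: Dose-response selectivity test against caspase-3 for candidate inhibitors of sentrin-specific proteases (SENPs)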
# T2 sequence (P42574 whole entry): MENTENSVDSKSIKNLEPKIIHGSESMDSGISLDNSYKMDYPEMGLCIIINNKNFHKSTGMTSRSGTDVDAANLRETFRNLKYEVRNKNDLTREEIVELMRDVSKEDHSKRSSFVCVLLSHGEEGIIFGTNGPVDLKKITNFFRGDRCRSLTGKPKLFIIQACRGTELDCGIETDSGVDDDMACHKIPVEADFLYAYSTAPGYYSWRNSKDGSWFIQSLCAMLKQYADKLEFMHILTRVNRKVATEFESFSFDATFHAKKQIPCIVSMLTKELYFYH
# [11] = viability loss in THP-1 monocytes – THP-1 cells, cytotoxicity control for Vif-APOBEC3G degradation inhibitor project, dose response (AID 1117359); assay type: functional; conditions: THP-1
# [12] = molecular target: T3, Sentrin-specific protease 8 (Homo sapiens, UniProt Q96LD8); assay type: functional;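 note: kinetic enzyme assay of SENP8 cleaving a Nedd8 protein substrate, dose-response confirmation of screening hits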
# T3 sequence (Q96LD8 whole entry): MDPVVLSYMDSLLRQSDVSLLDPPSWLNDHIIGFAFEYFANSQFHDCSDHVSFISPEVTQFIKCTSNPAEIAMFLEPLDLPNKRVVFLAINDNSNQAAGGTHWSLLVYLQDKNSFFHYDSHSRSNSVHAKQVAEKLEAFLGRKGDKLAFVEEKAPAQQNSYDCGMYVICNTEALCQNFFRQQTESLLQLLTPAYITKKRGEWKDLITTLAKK
# [13] = molecular target: T4, Zinc finger protein mex-5 (Caenorhabditis elegans, UniProt Q9XUB2); assay: potency of MEX-5 RNA-binding blockers – biochemical, C. elegans, fluorescence polarization, dose response (AID 1960)
# T4 sequence (Q9XUB2 whole entry): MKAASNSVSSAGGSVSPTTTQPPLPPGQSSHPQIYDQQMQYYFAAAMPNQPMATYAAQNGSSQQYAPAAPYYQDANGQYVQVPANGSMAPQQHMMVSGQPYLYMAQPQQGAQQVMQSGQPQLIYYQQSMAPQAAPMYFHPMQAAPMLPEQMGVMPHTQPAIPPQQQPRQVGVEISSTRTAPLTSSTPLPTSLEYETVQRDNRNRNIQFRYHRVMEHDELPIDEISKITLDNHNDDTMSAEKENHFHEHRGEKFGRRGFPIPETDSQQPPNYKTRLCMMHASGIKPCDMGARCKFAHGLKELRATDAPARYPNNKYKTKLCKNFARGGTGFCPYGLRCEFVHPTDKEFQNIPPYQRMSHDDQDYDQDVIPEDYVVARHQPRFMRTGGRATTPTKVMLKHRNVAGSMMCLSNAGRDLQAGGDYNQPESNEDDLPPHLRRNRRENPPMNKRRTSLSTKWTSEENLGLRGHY
# [14] = molecular target: T5, 1-phosphatidylinositol 4,5-bisphosphate phosphodiesterase beta-3 (Homo sapiens, UniProt Q01970); assay: Fluorescence-based biochemical high throughput dose response assay to identify inhibitors of phospholipase C isozymes (PLC-B3).
# T5 sequence (Q01970 whole entry): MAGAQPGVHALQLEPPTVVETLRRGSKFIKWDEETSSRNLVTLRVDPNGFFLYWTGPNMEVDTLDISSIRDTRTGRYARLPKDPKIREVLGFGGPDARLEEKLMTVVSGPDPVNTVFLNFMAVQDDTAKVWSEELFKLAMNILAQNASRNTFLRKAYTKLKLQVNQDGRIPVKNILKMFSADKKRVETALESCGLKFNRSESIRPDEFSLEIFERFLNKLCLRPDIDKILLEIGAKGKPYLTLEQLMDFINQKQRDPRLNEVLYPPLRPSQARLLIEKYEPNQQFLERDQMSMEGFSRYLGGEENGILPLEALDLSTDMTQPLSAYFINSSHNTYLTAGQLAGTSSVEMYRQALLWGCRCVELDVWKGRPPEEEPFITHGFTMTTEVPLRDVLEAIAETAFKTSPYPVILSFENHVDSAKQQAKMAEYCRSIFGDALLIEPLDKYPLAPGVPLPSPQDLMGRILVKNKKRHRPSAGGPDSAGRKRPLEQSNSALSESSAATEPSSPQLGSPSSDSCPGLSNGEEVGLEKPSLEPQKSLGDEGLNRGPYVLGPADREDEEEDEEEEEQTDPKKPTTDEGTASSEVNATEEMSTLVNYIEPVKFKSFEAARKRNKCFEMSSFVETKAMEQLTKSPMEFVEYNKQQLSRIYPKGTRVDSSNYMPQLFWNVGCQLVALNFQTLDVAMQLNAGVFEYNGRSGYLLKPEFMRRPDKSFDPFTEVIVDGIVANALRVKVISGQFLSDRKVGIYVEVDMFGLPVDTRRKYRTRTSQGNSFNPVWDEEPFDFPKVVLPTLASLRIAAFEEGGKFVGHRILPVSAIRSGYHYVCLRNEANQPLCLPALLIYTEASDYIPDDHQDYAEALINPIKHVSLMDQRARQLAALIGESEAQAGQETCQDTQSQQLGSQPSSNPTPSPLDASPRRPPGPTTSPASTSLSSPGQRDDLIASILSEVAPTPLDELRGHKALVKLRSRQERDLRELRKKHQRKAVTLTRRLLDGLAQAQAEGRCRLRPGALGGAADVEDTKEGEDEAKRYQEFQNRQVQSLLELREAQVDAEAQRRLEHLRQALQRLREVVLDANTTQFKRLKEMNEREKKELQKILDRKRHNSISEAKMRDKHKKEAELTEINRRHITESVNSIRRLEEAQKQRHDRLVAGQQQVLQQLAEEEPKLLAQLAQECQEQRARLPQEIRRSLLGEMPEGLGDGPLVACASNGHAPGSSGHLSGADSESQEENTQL
# Chain of Dual specificity mitogen-activated protein kinase kinase 1 (Q02750 whole entry): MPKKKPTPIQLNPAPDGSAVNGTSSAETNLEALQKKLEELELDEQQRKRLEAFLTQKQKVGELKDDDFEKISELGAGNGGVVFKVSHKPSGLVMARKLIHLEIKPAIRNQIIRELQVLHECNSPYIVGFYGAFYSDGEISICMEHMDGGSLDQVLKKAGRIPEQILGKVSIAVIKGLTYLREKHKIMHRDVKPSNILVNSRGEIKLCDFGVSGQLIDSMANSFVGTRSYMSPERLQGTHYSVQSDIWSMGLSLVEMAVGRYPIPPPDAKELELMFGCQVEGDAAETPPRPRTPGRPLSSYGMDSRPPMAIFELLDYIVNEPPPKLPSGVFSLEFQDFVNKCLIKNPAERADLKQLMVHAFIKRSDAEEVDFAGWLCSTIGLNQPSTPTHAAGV
smiles,measurement,setting,value
Cc1ccc(-c2cc3nc(Br)cnc3[nH]2)cc1,Ki,[1],> 3.16 µM (inactive)
same,Ki,[2],> 5.01 µM (inactive)
same,Ki,[3],> 3.98 µM (inactive)
same,Ki,[4],> 3.16 µM (inactive)
same,Ki,[5],> 2.51 µM (inactive)
same,Ki,[6],> 3.98 µM (inactive)
CC(=O)N(C1=C(Cl)C(=O)c2ccccc2C1=O)c1ccc(C(=O)O)cc1,IC50,[7],3.77 µM (active)
same,IC50,[8],3.35 µM (active)
same,IC50,[9],17.3 µM (active)
same,IC50,[10],14.2 µM (active)
same,CC50,[11],32.4 µM (active)
CC1(C)C=C2C(=NN(c3ccccc3)C(N)=C2C#N)CO1,IC50,[12],0.0173 µM (active)
O=C1C=C(O)c2c(O)cc(O)c(O)c2C1=O,EC50,[13],0.899 µM (active)
same,IC50,[14],> 122 µM (inactive)
